The target in one test is T1, ABCC6 WT (Homo sapiens, UniProt O95255).
T1 construct: expressed in transfected cells; host or cells: HEK-293 (transient, Lipofectamine 2000)
Nature of the test: ABCC6 WT assay: HiBit protein expression. The class given is cell-based. The following applies: HEK-293 cells transiently expressing HiBit-tagged ABCC6 WT; 24 h treatment; top concentration 20 μM; read-out: ABCC6 WT EC50, Emax. The source says: To assess activity against ABCC6, compounds were screened in an assay measuring protein expression, using cells transfected with cDNA encoding HiBit-tagged ABCC6 wild-type.
Described here is an assay for measuring the expression of the wild type of human ABCC6 (henceforth referred to as ABCC6 WT) and the use of this assay to measure the efficacy of compounds to increase the expression of ABCC6 WT. The assay was designed to characterize the efficacy and potency of compounds to increase the expression of ABCC6 WT by calculating an Emax and EC50 value. HEK-293 cells transiently expressing ABCC6 WT (HEK-293/ACC6 WT) were used for this assay and were cultured at 37° C. (5% CO2, humidified) in Dulbecco's Modified Eagle Medium (DMEM, Gibco product #11965-092) supplemented with 10% fetal bovine serum. For the assay, HEK-293 cells were transfected with […]/10 cm plate of cDNA encoding HiBit-tagged ABCC6 wild-type using Lipofectamine 2000 (Thermo Fisher, product #11668019). Twenty-four hours after transfection, the HEK-293/ACC6 WT cells were seeded in white/opaque 384-well plates (PerkinElmer, cat. No. 6007688) at 10,000 cells/well in 20 μl growth medium and allowed to settle for 4 hours at 37° C. (5% CO2, humidified). Compound serial dilutions are prepared in growth medium as ten times (10×) the final concentration and using a dilution factor of 2. After the four-hour incubation period, 2.2 μL of the 10× dilutions are transferred to the assay plate.
Dose response curves include ten doses with the top final concentration at 20 μM in 0.15% DMSO. Liquid handling is performed with an Integra mini96-tip head (INTEGRA). After addition of compound treatment, cells are incubated for 24 hours at 37° C. (5% CO2, humidified). After the 24-hour treatment, plates are allowed to equilibrate for 15 minutes at room temperature. Using Integra mini-96, 20 μl of HiBit lytic assay reagent (Promega, product #N3040), which is prepared according to manufacturer's instructions, is added to each well. The plates are rotated at room temperature for 10 minutes and luminescent signal is acquired using an EnVision Multimode Plate Reader (PerkinElmer).
Results are presented below in Table 4 for ABCC6 WT.

The target of the next test is T2, ABCA4 P1380L (Homo sapiens, UniProt P78363, P1380L).
T2 construct: expressed in transfected cells
The experiment in a line: A4 correction dose-response assay: ABCA4 P1380L HiBit protein expression. The class given is cell-based. The following applies: HEK-293 cells stably expressing HiBit-tagged ABCA4 P1380L; 24 h treatment; top concentration 30 μM; read-out: ABCA4 P1380L EC50, Emax. On the procedure:
Exemplary compounds were evaluated in an A4 correction dose-response assay.
To assess activity against ABCA4 P1380L, the compounds were screened in an assay measuring protein expression, using cells transfected with cDNA encoding HiBit-tagged ABCA4 P1380L. Here we describe an assay for measuring the expression of the P1380L variant of human ABCA4 (henceforth referred to as ABCA4 P1380L) and the use of this assay to measure the efficacy of compounds to increase the expression of ABCA4 P1380L. The assay was designed to characterize the efficacy and potency of compounds to increase the expression of ABCA4 P1380L by calculating an Emax and EC50 value. […] (5% CO2, humidified). […] After the four-hour incubation period, 60 nL of DMSO solutions are transferred to the assay plate.
Dose response curves include eleven doses with the top final concentration at 30 μM in 0.3% DMSO. Liquid handling is performed with ECHO 550 Acoustic Liquid Handler (Labcyte). After addition of compound treatment, cells are incubated for 24 hours at 37° C. (5% CO2, humidified). After the 24-hour treatment, plates are allowed to equilibrate to room temperature for 10 minutes. Using Dragonfly Automated Liquid Handler (TTP LabTech), 20 μl of HiBit lytic assay reagent (Promega, product #N3040), which is prepared according to manufacturer's instructions, is added to each well. The plates are rotated at room temperature for 2 minutes and incubated for 1 hour at 25° C. before luminescent signal is acquired using an EnVision Multimode Plate Reader (PerkinElmer).

Each structure is given as a SMILES string.

T1 sequence (O95255 whole entry): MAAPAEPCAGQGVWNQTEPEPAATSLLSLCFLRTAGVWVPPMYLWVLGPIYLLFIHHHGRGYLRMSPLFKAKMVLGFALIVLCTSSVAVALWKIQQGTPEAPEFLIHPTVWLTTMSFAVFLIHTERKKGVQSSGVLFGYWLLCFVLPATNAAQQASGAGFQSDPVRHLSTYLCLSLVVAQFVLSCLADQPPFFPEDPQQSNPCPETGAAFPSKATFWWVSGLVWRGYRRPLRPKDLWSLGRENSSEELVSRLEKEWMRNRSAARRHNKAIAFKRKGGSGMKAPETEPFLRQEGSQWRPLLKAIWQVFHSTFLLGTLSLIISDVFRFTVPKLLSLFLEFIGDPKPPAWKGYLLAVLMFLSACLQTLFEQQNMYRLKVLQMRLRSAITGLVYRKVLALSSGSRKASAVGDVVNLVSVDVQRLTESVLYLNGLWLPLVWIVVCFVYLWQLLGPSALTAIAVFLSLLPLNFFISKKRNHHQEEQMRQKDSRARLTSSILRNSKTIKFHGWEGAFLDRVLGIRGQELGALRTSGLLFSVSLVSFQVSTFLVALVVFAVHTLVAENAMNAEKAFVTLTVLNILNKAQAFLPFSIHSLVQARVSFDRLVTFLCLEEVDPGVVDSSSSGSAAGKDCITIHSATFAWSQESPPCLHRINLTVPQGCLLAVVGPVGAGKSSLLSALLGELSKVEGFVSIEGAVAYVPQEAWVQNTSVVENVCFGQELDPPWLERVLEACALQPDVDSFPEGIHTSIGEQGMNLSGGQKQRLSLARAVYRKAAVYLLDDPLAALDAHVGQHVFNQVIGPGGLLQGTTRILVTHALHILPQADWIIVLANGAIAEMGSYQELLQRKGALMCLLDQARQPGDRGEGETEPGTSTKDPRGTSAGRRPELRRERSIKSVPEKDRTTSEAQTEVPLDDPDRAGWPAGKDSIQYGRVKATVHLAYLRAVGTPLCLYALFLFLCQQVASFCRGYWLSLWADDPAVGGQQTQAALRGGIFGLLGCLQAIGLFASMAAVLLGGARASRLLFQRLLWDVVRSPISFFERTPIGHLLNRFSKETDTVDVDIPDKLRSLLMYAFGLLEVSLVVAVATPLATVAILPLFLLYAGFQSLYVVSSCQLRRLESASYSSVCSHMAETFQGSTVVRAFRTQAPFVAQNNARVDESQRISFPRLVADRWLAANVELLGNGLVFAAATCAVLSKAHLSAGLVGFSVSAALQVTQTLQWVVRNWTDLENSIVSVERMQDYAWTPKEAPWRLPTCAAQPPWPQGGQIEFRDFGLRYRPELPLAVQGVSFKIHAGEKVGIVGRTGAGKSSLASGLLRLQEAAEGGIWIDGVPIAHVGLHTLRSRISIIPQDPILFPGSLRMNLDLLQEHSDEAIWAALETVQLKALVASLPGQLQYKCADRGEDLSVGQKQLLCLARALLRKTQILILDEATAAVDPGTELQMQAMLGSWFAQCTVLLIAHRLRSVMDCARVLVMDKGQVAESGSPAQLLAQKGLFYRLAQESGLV
T2 sequence (P78363 whole entry P1380L): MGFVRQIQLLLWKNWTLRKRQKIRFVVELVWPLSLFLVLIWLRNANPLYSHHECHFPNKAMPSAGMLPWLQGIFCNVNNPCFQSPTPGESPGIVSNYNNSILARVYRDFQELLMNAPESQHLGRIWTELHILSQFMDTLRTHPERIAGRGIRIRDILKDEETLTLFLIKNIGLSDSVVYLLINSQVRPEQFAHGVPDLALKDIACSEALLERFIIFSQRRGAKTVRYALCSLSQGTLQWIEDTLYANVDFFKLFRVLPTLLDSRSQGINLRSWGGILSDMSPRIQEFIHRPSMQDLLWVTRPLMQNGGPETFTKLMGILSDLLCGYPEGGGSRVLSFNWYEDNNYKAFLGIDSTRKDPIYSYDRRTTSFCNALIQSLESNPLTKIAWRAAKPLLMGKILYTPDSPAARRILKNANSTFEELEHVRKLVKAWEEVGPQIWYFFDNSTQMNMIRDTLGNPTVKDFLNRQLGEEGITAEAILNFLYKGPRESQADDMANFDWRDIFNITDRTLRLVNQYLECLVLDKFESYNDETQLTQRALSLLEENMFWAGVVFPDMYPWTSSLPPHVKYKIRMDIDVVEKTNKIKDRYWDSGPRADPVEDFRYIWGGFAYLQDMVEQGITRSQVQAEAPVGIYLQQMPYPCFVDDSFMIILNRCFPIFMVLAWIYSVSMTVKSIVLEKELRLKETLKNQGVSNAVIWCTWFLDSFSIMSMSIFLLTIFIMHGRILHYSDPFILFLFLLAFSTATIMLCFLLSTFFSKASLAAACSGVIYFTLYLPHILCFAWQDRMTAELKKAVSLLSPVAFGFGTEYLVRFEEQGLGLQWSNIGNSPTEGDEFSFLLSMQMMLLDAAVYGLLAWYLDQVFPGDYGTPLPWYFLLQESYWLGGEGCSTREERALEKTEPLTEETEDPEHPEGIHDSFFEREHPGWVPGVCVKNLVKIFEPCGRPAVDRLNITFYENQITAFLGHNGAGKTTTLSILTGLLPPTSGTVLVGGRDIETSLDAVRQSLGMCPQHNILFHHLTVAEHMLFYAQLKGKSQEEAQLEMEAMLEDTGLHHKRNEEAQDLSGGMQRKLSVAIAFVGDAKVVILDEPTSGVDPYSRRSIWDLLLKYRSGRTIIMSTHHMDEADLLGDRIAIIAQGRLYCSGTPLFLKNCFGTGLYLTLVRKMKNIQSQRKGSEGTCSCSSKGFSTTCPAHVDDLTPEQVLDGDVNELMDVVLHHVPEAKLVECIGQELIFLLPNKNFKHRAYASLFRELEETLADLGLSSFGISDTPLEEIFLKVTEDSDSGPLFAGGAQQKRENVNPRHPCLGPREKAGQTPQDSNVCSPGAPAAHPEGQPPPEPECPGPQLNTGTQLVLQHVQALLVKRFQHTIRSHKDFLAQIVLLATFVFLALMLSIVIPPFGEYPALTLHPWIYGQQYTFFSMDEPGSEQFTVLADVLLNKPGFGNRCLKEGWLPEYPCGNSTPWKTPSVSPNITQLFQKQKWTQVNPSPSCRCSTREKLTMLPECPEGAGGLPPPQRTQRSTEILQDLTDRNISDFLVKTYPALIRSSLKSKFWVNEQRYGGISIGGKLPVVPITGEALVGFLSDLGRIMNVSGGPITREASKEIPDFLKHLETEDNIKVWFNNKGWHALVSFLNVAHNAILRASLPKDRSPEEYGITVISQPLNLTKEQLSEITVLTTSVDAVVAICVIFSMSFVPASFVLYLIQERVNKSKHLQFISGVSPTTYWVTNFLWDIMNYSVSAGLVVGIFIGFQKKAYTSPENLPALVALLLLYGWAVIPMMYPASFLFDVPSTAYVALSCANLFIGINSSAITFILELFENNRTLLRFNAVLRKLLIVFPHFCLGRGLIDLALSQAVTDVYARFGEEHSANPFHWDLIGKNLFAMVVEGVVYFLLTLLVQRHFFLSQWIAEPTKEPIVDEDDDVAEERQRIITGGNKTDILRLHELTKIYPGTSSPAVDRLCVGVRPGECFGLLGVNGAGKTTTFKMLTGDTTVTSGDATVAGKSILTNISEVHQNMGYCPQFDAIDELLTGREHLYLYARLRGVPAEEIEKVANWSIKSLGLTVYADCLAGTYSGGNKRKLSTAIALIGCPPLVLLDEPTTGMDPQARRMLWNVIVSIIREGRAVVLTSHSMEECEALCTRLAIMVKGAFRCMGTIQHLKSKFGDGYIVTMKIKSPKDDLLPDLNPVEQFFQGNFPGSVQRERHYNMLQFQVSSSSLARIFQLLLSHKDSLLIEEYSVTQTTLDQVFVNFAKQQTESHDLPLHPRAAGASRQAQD

With `CNS(=O)(=O)c1ccc(-c2cncc(C#N)c2)nc1Oc1nc(C)sc1C1CC1` [Compound I-312], the EC50 is < 25 µM on ABCC6 WT and > 25 µM at ABCA4 P1380L.
For `CNS(=O)(=O)c1ccc(-c2cncc(C#N)c2)nc1Oc1c(C)nc(C(F)F)nc1C1CC1` [Compound I-313], in that order: 1 to 10 µM and 10 to 25 µM.
For `Cc1nc(C(F)F)nc(C2CC2)c1Oc1nc(-c2cncc(C#N)c2)ccc1S(=O)(=O)NC1CC1` [Compound I-314], the EC50 was ≥ 25 µM at ABCC6 WT and > 25 µM on ABCA4 P1380L.
Take `CNS(=O)(=O)c1ccc(-c2cncc(C#N)c2)nc1Oc1c(C)nc(C(F)(F)F)nc1C1CC1` [Compound I-315]: the EC50 on ABCC6 WT was 1 to 10 µM; at ABCA4 P1380L, > 25 µM.
Turning to `Cc1cc(C)c(Oc2nc(-c3cccc(C#N)c3)ccc2S(=N)(=O)C2CC2)c(C)n1` (stereo not shown) [Compound I-316], the half-maximal effective concentration (EC50) at ABCC6 WT and at ABCA4 P1380L was 1 to 10 µM each time.

Usually EC50 stands for the concentration giving half of the maximal effect.
